Test [1] addresses T1, human Cereblon WT GST-tagged protein (Homo sapiens, UniProt Q96SW2).
T1 construct: purchased CISBIO 64BDCRBNPEH
In words: CRBN-binding affinity, HTRF (CEREBLON BINDING kit). The settings on record: CRBN binding, HTRF, 3 hours at room temperature; read-out: HTRF IC50. A general note: Time-resolved FRET reads energy transfer from a long-lived donor to a nearby acceptor.

A further test has as its target T2, WEE1 (Homo sapiens, UniProt P30291+Q96SW2).
T2 construct: effects of the compounds of the present disclosure on the expression of target proteins in cells; endogenous in cells; host or cells: human PBMCs (Milecell Biotechnologies)
Put plainly: Western blot, degradation of substrate protein in hPBMCs. The test is classed as cell-based. The protocol:
(§1) Conventional Western blot assay was performed to evaluate the effects of the compounds of the present disclosure on the expression of target proteins in cells. • (1) Cell Seeding and Protein Harvesting: Human peripheral blood mononuclear cells (hPBMCs) at a density of 1×10^6 cells/mL were thawed according to the PBMC Recovery Protocol (Milecell Biotechnologies Inc, Shanghai). […] After 24 hours of compounds treatment, cells were harvested and lysed in RIPA protein lysate containing protease inhibitors on ice for 30 min, followed by centrifugation. The supernatant was aspirated as the extracted total cell protein. The protein concentration of the supernatant was determined using the conventional BCA (Bicinchoninic Acid) assay. • (2) To the collected supernatant, 5X SDS sample loading buffer was added, followed by denaturation at 95°C for 5 minutes. The denatured samples were then separated by SDS-PAGE electrophoresis on a polyacrylamide gel, transferred onto a nitrocellulose membrane (0.45 µm NC membrane), blocked with blocking buffer at room temperature for 1 hour, and subjected to antibody incubation and development procedures according to the antibody manufacturer's instructions (Cell Signaling Technology Company).
(§2) Half-Maximal Degradation Concentration value (the drug concentration required for degrading proteins by 50%, abbreviated as DC50) reads method: comparing the grayscale values of Western blot bands from drug-treated samples with those from blank DMSO-treated controls, and identifying the drug concentration range at which the grayscale value is half that of the DMSO-treated control bands.
(§3) DC50 values can be calculated using ImageJ software to measure grayscale values of Western blot bands from drug-treated samples. The concentration-response curve is fitted to estimate the drug concentration corresponding to half the grayscale value.
(§4) Target protein remaining (%) refers to the percentage of target protein remaining in cells after treatment with protein degrader compounds.
(§5) Calculation method for target protein remaining (%): Use ImageJ software to measure grayscale values of Western blot bands from drug (protein degrader)-treated samples. The grayscale value of drug-treated bands is divided by that of internal control protein bands, and the resulting quotient is normalized to obtain the relative percentage of remaining target protein after protein degrader treatment.
(§6) Target protein degradation rate (%) = 1−target protein remaining (%). [formula]
Background: A western blot detects proteins with antibodies after separation by electrophoresis.

The next test has as its target T3, IKZF1 (Homo sapiens, UniProt Q13422+Q96SW2).
T3 construct: effects of the compounds of the present disclosure on the expression of target proteins in cells; endogenous in cells; host or cells: human PBMCs (Milecell Biotechnologies)
The test is described as above. The test is classed as cell-based. The protocol:
as §1, §2, §3, §4, §5, §6

Another test has as its target T4, IKZF2 (Homo sapiens, UniProt Q96SW2+Q9UKS7).
T4 construct: effects of the compounds of the present disclosure on the expression of target proteins in cells; endogenous in cells; host or cells: human PBMCs (Milecell Biotechnologies)
The test is described as above. The format is cell-based. The protocol:
as §1, §2, §3, §4, §5, §6

In the next test the target is T5, CK1α (Homo sapiens, UniProt P48729+Q96SW2).
T5 construct: effects of the compounds of the present disclosure on the expression of target proteins in cells; endogenous in cells; host or cells: human PBMCs (Milecell Biotechnologies)
T5 sequence (P48729 whole entry): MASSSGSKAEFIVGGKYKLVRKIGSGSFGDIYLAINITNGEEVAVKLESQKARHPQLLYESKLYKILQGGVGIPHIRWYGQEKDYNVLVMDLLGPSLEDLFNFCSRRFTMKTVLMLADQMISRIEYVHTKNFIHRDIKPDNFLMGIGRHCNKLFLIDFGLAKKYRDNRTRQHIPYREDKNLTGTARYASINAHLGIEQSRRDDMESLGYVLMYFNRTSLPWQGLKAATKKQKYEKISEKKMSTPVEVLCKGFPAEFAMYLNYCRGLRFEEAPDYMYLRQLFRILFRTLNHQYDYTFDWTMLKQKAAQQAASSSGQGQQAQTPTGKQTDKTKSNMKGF
T5 sequence (Q96SW2 whole entry): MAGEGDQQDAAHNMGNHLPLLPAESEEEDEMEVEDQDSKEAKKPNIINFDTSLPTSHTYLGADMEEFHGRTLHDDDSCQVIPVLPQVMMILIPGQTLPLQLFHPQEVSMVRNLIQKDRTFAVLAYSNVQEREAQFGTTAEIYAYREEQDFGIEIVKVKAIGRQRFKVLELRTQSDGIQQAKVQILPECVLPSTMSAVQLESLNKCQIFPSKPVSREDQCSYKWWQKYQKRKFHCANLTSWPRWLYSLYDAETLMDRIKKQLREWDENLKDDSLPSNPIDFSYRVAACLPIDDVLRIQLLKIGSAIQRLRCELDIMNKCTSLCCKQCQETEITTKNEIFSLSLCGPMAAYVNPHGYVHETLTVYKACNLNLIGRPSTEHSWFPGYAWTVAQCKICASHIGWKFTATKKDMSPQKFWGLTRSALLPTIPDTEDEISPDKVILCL
T5 sequence (Q16531 whole entry partner): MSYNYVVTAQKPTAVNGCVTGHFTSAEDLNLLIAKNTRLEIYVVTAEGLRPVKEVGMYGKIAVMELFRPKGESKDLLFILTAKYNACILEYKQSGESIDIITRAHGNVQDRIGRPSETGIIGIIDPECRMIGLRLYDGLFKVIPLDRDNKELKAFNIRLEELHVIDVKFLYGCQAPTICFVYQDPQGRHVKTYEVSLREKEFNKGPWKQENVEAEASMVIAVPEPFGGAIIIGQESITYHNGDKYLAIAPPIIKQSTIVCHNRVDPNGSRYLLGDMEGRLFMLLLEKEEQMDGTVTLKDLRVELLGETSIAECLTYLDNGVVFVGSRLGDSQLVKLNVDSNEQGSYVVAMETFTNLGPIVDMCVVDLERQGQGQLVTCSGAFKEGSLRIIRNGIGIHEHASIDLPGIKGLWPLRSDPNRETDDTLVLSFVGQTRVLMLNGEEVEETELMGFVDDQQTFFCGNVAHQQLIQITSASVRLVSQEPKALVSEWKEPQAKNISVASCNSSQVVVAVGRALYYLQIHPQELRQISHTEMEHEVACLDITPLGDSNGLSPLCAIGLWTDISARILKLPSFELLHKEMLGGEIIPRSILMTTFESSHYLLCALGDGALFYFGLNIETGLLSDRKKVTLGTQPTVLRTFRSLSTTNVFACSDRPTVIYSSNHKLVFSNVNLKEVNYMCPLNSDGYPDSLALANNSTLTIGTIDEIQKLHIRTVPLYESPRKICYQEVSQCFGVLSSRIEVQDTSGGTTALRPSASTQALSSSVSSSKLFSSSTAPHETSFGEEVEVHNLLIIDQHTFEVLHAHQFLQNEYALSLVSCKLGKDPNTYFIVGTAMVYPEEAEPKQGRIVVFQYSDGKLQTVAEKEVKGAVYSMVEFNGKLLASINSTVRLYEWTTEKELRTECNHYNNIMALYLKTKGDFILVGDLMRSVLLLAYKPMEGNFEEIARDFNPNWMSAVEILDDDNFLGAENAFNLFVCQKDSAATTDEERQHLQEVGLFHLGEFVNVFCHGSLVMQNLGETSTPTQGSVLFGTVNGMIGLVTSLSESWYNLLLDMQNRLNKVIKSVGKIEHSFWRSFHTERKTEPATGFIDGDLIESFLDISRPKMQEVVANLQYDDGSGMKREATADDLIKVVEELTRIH
Described as above. The test is classed as cell-based. The protocol: as §1, §2, §3, §4, §5, §6

A further test deals with T6, IKZF3 (Homo sapiens, UniProt Q96SW2+Q9UKT9).
T6 construct: effects of the compounds of the present disclosure on the expression of target proteins in cells; endogenous in cells; host or cells: human PBMCs (Milecell Biotechnologies)
T6 sequence (Q9UKT9 whole entry): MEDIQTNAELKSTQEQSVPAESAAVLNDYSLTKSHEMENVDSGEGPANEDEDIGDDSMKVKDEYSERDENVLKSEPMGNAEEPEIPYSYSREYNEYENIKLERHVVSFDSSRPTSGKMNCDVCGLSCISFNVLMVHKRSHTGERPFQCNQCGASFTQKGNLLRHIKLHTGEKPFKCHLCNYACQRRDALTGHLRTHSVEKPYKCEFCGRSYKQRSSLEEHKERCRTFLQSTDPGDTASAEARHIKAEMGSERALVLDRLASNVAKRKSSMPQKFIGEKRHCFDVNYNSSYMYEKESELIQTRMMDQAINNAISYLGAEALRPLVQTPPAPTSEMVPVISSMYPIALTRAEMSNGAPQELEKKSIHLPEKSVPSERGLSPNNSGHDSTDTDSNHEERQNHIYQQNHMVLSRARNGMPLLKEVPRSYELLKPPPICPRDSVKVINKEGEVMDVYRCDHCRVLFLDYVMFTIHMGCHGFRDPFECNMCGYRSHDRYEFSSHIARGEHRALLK
T6 sequence (Q96SW2 whole entry): as the sequence (Q96SW2 whole entry) above
T6 sequence (Q16531 whole entry partner): as the sequence (Q16531 whole entry partner) above
The description is as above. The test is classed as cell-based. The protocol: as §1, §2, §3, §4, §5, §6

The subject of the next test is GSPT1. The test is described as above. The format is cell-based, Human. The protocol:
as §1, §2, §3, §4, §5, §6

The mark [2] stands for this setting: 24 hours treatment, compounds at 50 nM and 500 nM (concentration behind the class not stated).
Where [3] appears, read: Western blot, 24 hours of compound treatment, compounds tested at 50 nM and 500 nM (concentration for the table not stated).

SMILES strings stand for the structures.

T3 sequence (Q13422 whole entry): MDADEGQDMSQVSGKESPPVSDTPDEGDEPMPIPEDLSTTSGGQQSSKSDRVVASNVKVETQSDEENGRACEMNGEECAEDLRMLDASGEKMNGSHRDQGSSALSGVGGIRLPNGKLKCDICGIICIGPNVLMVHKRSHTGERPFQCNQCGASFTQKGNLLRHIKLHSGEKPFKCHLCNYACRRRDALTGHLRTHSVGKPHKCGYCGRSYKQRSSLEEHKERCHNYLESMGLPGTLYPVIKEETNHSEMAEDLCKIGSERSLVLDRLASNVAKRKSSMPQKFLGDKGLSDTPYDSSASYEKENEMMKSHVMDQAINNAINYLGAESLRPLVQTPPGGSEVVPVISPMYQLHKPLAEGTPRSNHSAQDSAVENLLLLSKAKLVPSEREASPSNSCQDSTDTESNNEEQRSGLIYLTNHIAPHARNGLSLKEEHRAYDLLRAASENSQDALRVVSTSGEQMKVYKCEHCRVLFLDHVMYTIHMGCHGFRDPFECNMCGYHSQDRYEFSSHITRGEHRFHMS
T3 sequence (Q96SW2 whole entry): as the sequence (Q96SW2 whole entry) above
T3 sequence (Q16531 whole entry partner): as the sequence (Q16531 whole entry partner) above
T4 sequence (Q9UKS7 whole entry): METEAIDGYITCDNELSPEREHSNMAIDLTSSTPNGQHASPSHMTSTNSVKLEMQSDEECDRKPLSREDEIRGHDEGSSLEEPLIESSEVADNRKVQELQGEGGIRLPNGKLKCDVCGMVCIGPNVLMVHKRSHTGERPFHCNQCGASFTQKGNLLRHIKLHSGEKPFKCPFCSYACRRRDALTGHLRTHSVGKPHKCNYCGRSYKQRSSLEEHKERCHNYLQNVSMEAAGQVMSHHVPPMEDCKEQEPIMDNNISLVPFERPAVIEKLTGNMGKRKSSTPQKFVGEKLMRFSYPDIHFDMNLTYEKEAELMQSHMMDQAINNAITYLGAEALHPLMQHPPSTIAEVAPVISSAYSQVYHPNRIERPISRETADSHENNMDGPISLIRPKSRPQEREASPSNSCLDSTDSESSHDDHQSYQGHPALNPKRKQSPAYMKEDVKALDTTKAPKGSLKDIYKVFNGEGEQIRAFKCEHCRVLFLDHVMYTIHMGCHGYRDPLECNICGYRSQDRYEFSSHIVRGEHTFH
T4 sequence (Q96SW2 whole entry): as the sequence (Q96SW2 whole entry) above
T4 sequence (Q16531 whole entry partner): as the sequence (Q16531 whole entry partner) above
T2 sequence (P30291 whole entry): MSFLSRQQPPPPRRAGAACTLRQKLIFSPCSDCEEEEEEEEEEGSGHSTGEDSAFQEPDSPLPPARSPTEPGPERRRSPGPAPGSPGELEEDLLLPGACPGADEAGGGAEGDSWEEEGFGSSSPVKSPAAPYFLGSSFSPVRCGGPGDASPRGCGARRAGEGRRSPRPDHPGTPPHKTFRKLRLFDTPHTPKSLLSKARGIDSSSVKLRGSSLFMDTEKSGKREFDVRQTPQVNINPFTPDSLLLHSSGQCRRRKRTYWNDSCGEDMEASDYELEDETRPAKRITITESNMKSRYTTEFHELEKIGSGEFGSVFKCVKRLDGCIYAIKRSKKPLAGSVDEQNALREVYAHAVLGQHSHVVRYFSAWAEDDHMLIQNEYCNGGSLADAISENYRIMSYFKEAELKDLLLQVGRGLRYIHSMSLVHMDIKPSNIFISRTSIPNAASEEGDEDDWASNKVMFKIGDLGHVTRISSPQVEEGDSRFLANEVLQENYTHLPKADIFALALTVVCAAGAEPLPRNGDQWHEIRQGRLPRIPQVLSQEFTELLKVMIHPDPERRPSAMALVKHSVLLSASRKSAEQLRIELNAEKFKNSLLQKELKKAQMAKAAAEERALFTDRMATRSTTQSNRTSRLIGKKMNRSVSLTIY
T2 sequence (Q96SW2 whole entry): as the sequence (Q96SW2 whole entry) above
T2 sequence (Q16531 whole entry partner): as the sequence (Q16531 whole entry partner) above
T1 sequence (Q96SW2 whole entry): as the sequence (Q96SW2 whole entry) above

Consider `O=C1CCC(N2Cc3ccc(CN4CCN(c5cccc(Cl)c5Cl)CC4)cc3C2=S)C(=O)N1` (centres unmarked) [GT-05033, 3-(6-((4-(2,3-dichlorophenyl)piperazin-1-yl)methyl)-1-thioxoisoindolin-2-yl)piperidine-2,6-dione], for which the IC50 (in general, the concentration that gives 50% inhibition) in test [1] was in the range of 100 to 500 nM. On WEE1 (setting [2]), the “Wee1 substrate protein remaining %” value is “B (80%< substrate protein remaining %≤ 100%)”. On IKZF1 (setting [2]), the “IKZF 1 substrate protein remaining %” value was “B (80%< substrate protein remaining %≤ 100%)”. Also, the “IKZF2 substrate protein remaining %” value at IKZF2 (setting [2]) is reported as “B (80%< substrate protein remaining %≤ 100%)”. The “CK1α substrate protein remaining %” value at CK1α (setting [2]) was “B (80%< substrate protein remaining %≤ 100%)”. Besides, at IKZF3 (setting [2]), the “IKZF3 substrate protein remaining %” value is listed as “A (0% ≤ substrate protein remaining % ≤ 80%)”. Also, the “GSPT1 substrate protein remaining %” value in the test on GSPT1 (setting [2]) is given as “A (0% ≤ substrate protein remaining % ≤ 80%)”.

Consider `O=C1CCC(N2Cc3ccc(CN4CCN(c5cccc6sccc56)CC4)cc3C2=S)C(=O)N1` (centres unmarked) [GT-05035, 3-(6-((4-(benzo[b]thiophen-4-yl)piperazin-1-yl)methyl)-1-thioxoisoindolin-2-yl)piperidine-2,6-dione], for which the IC50 in test [1] is 100 to 500 nM. For the same compound, at WEE1 (setting [3]), the “Wee1 substrate protein remaining %” value is reported as “A (0% ≤ substrate protein remaining % ≤ 80%)”. For the same compound, the “IKZF 1 substrate protein remaining %” value at IKZF1 (setting [3]) is “A (0% ≤ substrate protein remaining % ≤ 80%)”. The “IKZF2 substrate protein remaining %” value at IKZF2 (setting [3]) is on record as “A (0% ≤ substrate protein remaining % ≤ 80%)”. Besides, at CK1α (setting [3]), the “CK1α substrate protein remaining %” value is recorded as “B (80%< substrate protein remaining %≤ 100%)”. Also, the “IKZF3 substrate protein remaining %” value at IKZF3 (setting [3]) was “A (0% ≤ substrate protein remaining % ≤ 80%)”. The “GSPT1 substrate protein remaining %” value with GSPT1 (setting [3]) was “A (0% ≤ substrate protein remaining % ≤ 80%)”.

Regarding `O=C1CCC(N2Cc3ccc(CN4CCN(C(c5ccccc5)c5ccccn5)CC4)cc3C2=S)C(=O)N1` (centres unmarked) [GT-05041, 3-(6-((4-(phenyl(pyridin-2-yl)methyl)piperazin-1-yl)methyl)-1-thioxoisoindolin-2-yl)piperidine-2,6-dione], the IC50 in test [1] was 1500 to 1900 nM. Moreover, the “Wee1 substrate protein remaining %” value on WEE1 (setting [3]) is “B (80%< substrate protein remaining %≤ 100%)”. Moreover, the “IKZF 1 substrate protein remaining %” value on IKZF1 (setting [3]) is listed as “A (0% ≤ substrate protein remaining % ≤ 80%)”. In addition, the “IKZF2 substrate protein remaining %” value at IKZF2 (setting [3]) is “B (80%< substrate protein remaining %≤ 100%)”. Besides, on CK1α (setting [3]), the “CK1α substrate protein remaining %” value is “B (80%< substrate protein remaining %≤ 100%)”. For the same compound, the “IKZF3 substrate protein remaining %” value at IKZF3 (setting [3]) was “B (80%< substrate protein remaining %≤ 100%)”. Further, the “GSPT1 substrate protein remaining %” value with GSPT1 (setting [3]) was “A (0% ≤ substrate protein remaining % ≤ 80%)”.

Turning to `O=C1CCC(N2Cc3cc(CN4CCC(c5noc6cc(F)ccc56)CC4)ccc3C2=S)C(=O)N1` (centres unmarked) [GT-05089, 3-(5-((4-(6-fluorobenzo[d]isoxazol-3-yl)piperidin-1-yl)methyl)-1-thioxoisoindolin-2-yl)piperidine-2,6-dione], the IC50 in test [1] is under 100 nM. Further, the “Wee1 substrate protein remaining %” value at WEE1 (setting [3]) is on record as “B (80%< substrate protein remaining %≤ 100%)”. The “IKZF 1 substrate protein remaining %” value on IKZF1 (setting [3]) is given as “B (80%< substrate protein remaining %≤ 100%)”. The “IKZF2 substrate protein remaining %” value at IKZF2 (setting [3]) is on record as “B (80%< substrate protein remaining %≤ 100%)”. For the same compound, the “CK1α substrate protein remaining %” value at CK1α (setting [3]) is recorded as “B (80%< substrate protein remaining %≤ 100%)”. The “IKZF3 substrate protein remaining %” value at IKZF3 (setting [3]) was “B (80%< substrate protein remaining %≤ 100%)”. Also, the “GSPT1 substrate protein remaining %” value in the test on GSPT1 (setting [3]) is given as “A (0% ≤ substrate protein remaining % ≤ 80%)”.

As to `Cc1ccc(N2CCN(Cc3ccc4c(c3)CN(C3CCC(=O)NC3=O)C4=S)CC2)s1` (centres unmarked) [GT-05110, 3-(5-((4-(5-methylthiophen-2-yl)piperazin-1-yl)methyl)-1-thioxoisoindolin-2-yl)piperidine-2,6-dione], in test [1], the IC50 was 100 to 500 nM. Moreover, the “Wee1 substrate protein remaining %” value on WEE1 (setting [3]) is “B (80%< substrate protein remaining %≤ 100%)”. Moreover, the “IKZF 1 substrate protein remaining %” value on IKZF1 (setting [3]) is “B (80%< substrate protein remaining %≤ 100%)”. Also, on IKZF2 (setting [3]), the “IKZF2 substrate protein remaining %” value is “B (80%< substrate protein remaining %≤ 100%)”. Further, on CK1α (setting [3]), the “CK1α substrate protein remaining %” value is “B (80%< substrate protein remaining %≤ 100%)”. At IKZF3 (setting [3]), the “IKZF3 substrate protein remaining %” value is listed as “B (80%< substrate protein remaining %≤ 100%)”. Further, the “GSPT1 substrate protein remaining %” value with GSPT1 (setting [3]) was “A (0% ≤ substrate protein remaining % ≤ 80%)”.
